In patent publication US9102614B2, “Naphth-2-ylacetic acid derivatives to treat AIDS” (Gilead Sciences, Inc., priority 2010, dated 2015):

System: HIV-IIIb
Experiment: Test A: Antiviral Assays in MT4 Cells
Assay type: cell-based
Details: Human immunodeficiency virus 1, IIIB, MT4, 120 h
Method in brief: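 MT-4 cells pre-infected with HIV-IIIb (0.004 m.o.i.) at 37 °C, then plated with 3-fold serially diluted compound (10 concentrations, quadruplicate, RPMI 1640/10% FBS). After 5 days at 37 °C, cell viability read by CellTiter-Glo chemiluminescence; mock-infected cells run in parallel.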

**Q.** With `Cc1cc2c(C#CCN(C)C)cccc2c(-c2ccc(Cl)cc2)c1C(OC(C)(C)C)C(=O)O` (centres unmarked) [Compound 39, 2-tert-Butoxy-2-(1-(4-chlorophenyl)-5-(3-(dimethylamino)prop-1-ynyl)-3-methylnaphthalen-2-yl)acetic acid] as the compound, how does the EC50 read?
**A.** 0.7 µM

Same assay, conditions: Human immunodeficiency virus 1, IIIB, MT4, 120 h, MT-4 cells infected with HIV-IIIb (0.004 m.o.i.), 5 days of incubation, CellTiter-Glo chemiluminescence readout; read-out: EC50

**Q.** Which EC50 does the source give for `C=Cc1ccc2cc(C)c(C(OC(C)(C)C)C(=O)O)c(-c3ccc(Cl)cc3)c2c1` (centres unmarked) [Compound 76, 2-tert-Butoxy-2-(1-(4-chlorophenyl)-3-methyl-7-vinylnaphthalen-2-yl)acetic acid] here?
**A.** 0.93 µM

**Q.** For `Cc1cc2cc(F)ccc2c(-c2ccc(Cl)cc2)c1C(OC(C)(C)C)C(=O)O` (centres unmarked) [Compound 42, 2-tert-Butoxy-2-(1-(4-chlorophenyl)-6-fluoro-3-methylnaphthalen-2-yl)acetic acid], which EC50 is on record?
**A.** 0.11 µM

**Q.** How did the EC50 turn out when `Cc1cc2ccccc2c(C2=CCC(C)CC2)c1[C@H](OC(C)(C)C)C(=O)O` (stereo partly drawn) [Compound 13, (2S)-2-tert-Butoxy-2-(3-methyl-1-(4-methylcyclohex-1-enyl)naphthalen-2-yl)acetic acid] was run?
**A.** 0.01 µM

**Q.** With `Cc1cc2ccc(Cl)cc2c(-c2ccc3c4c(ccnc24)CCO3)c1[C@H](OC(C)(C)C)C(=O)O` (atropisomer, axis not shown) [Compound 180] as the compound, how does the EC50 read?
**A.** 29 µM

**Q.** With `Cc1cc2cc(-c3ccncc3)ccc2c(-c2ccc(Cl)cc2)c1[C@H](OC(C)(C)C)C(=O)O` [Compound 53, (S)-2-tert-Butoxy-2-(1-(4-chlorophenyl)-3-methyl-6-(pyridin-4-yl)naphthalen-2-yl)acetic acid] as the compound, how does the EC50 read?
**A.** 0.12 µM

**Q.** Which EC50 does the source give for `Cc1cc2ccc(C#CC(C)(O)c3ccccc3)cc2c(-c2ccc(Cl)cc2)c1C(OC(C)(C)C)C(=O)O` (centres unmarked) [Compound 88, 2-tert-Butoxy-2-(1-(4-chlorophenyl)-7-(3-hydroxy-3-phenylbut-1-ynyl)-3-methylnaphthalen-2-yl)acetic acid] here?
**A.** 0.024 µM

**Q.** With `Cc1cc2ccc(CCC(C)(C)O)cc2c(-c2ccc(Cl)cc2)c1C(OC(C)(C)C)C(=O)O` (centres unmarked) [Compound 89, 2-tert-Butoxy-2-(1-(4-chlorophenyl)-7-(3-hydroxy-3-methylbutyl)-3-methylnaphthalen-2-yl)acetic acid] as the compound, how does the EC50 read?
**A.** 0.28 µM

**Q.** `Cc1cc2c(C#N)cc(F)cc2c(-c2ccc3c4c(ccnc24)CCO3)c1[C@H](OC(C)(C)C)C(=O)O` (atropisomer, axis not shown) [Compound 154] was tested. Which EC50 did it give?
**A.** 29 µM

**Q.** `Cc1c(C(OC(C)(C)C)C(=O)O)c(-c2ccc(Cl)cc2)c2ccccc2c1-c1ccc(N)nc1` (centres unmarked) [Compound 143, 2-(4-(6-Aminopyridin-3-yl)-1-(4-chlorophenyl)-3-methylnaphthalen-2-yl)-2-tert-butoxyacetic acid] was tested. Which EC50 did it give?
**A.** 0.056 µM

**Q.** Which EC50 does the source give for `Cc1cc2ccc(CCC3CC3)cc2c(-c2ccc(Cl)cc2)c1C(OC(C)(C)C)C(=O)O` (centres unmarked) [Compound 92, 2-tert-Butoxy-2-(1-(4-chlorophenyl)-7-(2-cyclopropylethyl)-3-methylnaphthalen-2-yl)acetic acid] here?
**A.** 7.1 µM

**Q.** For `Cc1cc2ccc(C#CC(C)(C)N)cc2c(-c2ccc3c4c(ccnc24)CCO3)c1C(OC(C)(C)C)C(=O)O` [Compound 86, (S)-2-((R)-7-(3-Amino-3-methylbut-1-ynyl)-1-(2,3-dihydropyrano[4,3,2-de]quinolin-7-yl)-3-methylnaphthalen-2-yl)-2-tert-butoxyacetic acid], which EC50 is on record?
**A.** 0.98 µM

**Q.** Which EC50 does the source give for `Cc1cc2ccccc2c(C2=CCCCC2)c1[C@H](OC(C)(C)C)C(=O)O` [Compound 8, (S)-2-tert-Butoxy-2-(1-cyclohexenyl-3-methylnaphthalen-2-yl)acetic acid] here?
**A.** 0.025 µM

**Q.** Which EC50 does the source give for `Cc1cc2ccccc2c(-c2ccc(Cl)cc2)c1[C@H](OC(C)(C)C)C(=O)O` [Compound 3K, (S)-2-tert-butoxy-2-(1-(4-chlorophenyl)-3-methylnaphthalen-2-yl)acetic acid] here?
**A.** 0.056 µM

**Q.** Which EC50 does the source give for `Cc1cc2c(C(N)=O)cc(F)cc2c(-c2ccc3c4c(ccnc24)CCO3)c1[C@H](OC(C)(C)C)C(=O)O` (atropisomer, axis not shown) [Compound 155] here?
**A.** 29 µM

**Q.** How did the EC50 turn out when `Cc1c(C(OC(C)(C)C)C(=O)O)c(-c2ccc(Cl)cc2)c2ccccc2c1-c1cnc(=O)[nH]c1` (centres unmarked) [Compound 146, 2-tert-Butoxy-2-(1-(4-chlorophenyl)-3-methyl-4-(2-oxo-1,2-dihydropyrimidin-5-yl)naphthalen-2-yl)acetic acid] was run?
**A.** 10 µM

**Q.** How did the EC50 turn out when `Cc1cc2ccc(C#CC(C)(C)N)cc2c(-c2ccc(Cl)cc2)c1C(OC(C)(C)C)C(=O)O` (centres unmarked) [Compound 85, 2-(7-(3-Amino-3-methylbut-1-ynyl)-1-(4-chlorophenyl)-3-methylnaphthalen-2-yl)-2-tert-butoxyacetic acid] was run?
**A.** 0.018 µM

**Q.** `CCC(O)(C#Cc1ccc2cc(C)c(C(OC(C)(C)C)C(=O)O)c(-c3ccc(Cl)cc3)c2c1)CC` (centres unmarked) [Compound 82, 2-tert-Butoxy-2-(1-(4-chlorophenyl)-7-(3-ethyl-3-hydroxypent-1-ynyl)-3-methylnaphthalen-2-yl)acetic acid] was tested. Which EC50 did it give?
**A.** 0.058 µM

**Q.** For `CC(C)(C)O[C@H](C(=O)O)c1c(CF)cc2ccccc2c1-c1ccc2c3c(ccnc13)CCO2` [Compound 31, (S)-2-tert-Butoxy-2-((R)-1-(2,3-dihydropyrano[4,3,2-de]quinolin-7-yl)-3-(fluoromethyl)naphthalen-2-yl)acetic acid], which EC50 is on record?
**A.** 0.11 µM

**Q.** `Cc1c(C(OC(C)(C)C)C(=O)O)c(-c2ccc(Cl)cc2)c2ccccc2c1CN(C)C` (centres unmarked) [Compound 133, 2-tert-Butoxy-2-(1-(4-chlorophenyl)-4-((dimethylamino)methyl)-3-methylnaphthalen-2-yl)acetic acid] was tested. Which EC50 did it give?
**A.** 0.123 µM

**Q.** With `CC(C)(C)O[C@H](C(=O)O)c1c(COc2cncnc2)cc2ccccc2c1-c1ccc(Cl)cc1` [Compound 26, (S)-2-tert-Butoxy-2-(1-(4-chlorophenyl)-3-((pyrimidin-5-yloxy)methyl)naphthalen-2-yl)acetic acid] as the compound, how does the EC50 read?
**A.** 0.84 µM

**Q.** `Cc1cc2ccc(C#CC(C)(C)N)cc2c(-c2ccc(Cl)cc2)c1[C@H](OC(C)(C)C)C(=O)O` [Compound 98, (S)-2-(7-(3-Amino-3-methylbut-1-ynyl)-1-(4-chlorophenyl)-3-methylnaphthalen-2-yl)-2-tert-butoxyacetic acid] was tested. Which EC50 did it give?
**A.** 0.01 µM

**Q.** For `CCc1ccc2c(-c3ccc4c5c(ccnc35)CCO4)c([C@H](OC(C)(C)C)C(=O)O)c(C)cc2c1F` (atropisomer, axis not shown) [Compound 120, (S)-2-tert-Butoxy-2-((R)-1-(2,3-dihydropyrano[4,3,2-de]quinolin-7-yl)-6-ethyl-5-fluoro-3-methylnaphthalen-2-yl)acetic acid], which EC50 is on record?
**A.** 0.032 µM

**Q.** `Cc1cc2cc(C(C)C)c(F)cc2c(-c2ccc3c4c(ccnc24)CCO3)c1[C@H](OC(C)(C)C)C(=O)O` (atropisomer, axis not shown) [Compound 167] was tested. Which EC50 did it give?
**A.** 29 µM

**Q.** With `Cc1cc2ccc(C#CC(C)(C)N)cc2c(-c2ccc3c4c(ccnc24)CCO3)c1C(OC(C)(C)C)C(=O)O` (centres unmarked) [Compound 176] as the compound, how does the EC50 read?
**A.** 12 µM

**Q.** With `Cc1cc2c(F)cccc2c(-c2ccc(Cl)cc2)c1C(OC(C)(C)C)C(=O)O` (centres unmarked) [Compound 46, 2-tert-Butoxy-2-(1-(4-chlorophenyl)-5-fluoro-3-methylnaphthalen-2-yl)acetic acid] as the compound, how does the EC50 read?
**A.** 1.4 µM

**Q.** For `CCc1cc2ccccc2c(-c2ccc(Cl)cc2)c1[C@H](OC(C)(C)C)C(=O)O` [Compound 29B, (S)-2-tert-butoxy-2-(1-(4-chlorophenyl)-3-ethylnaphthalen-2-yl)acetic acid], which EC50 is on record?
**A.** 0.5 µM

**Q.** Which EC50 does the source give for `Cc1c([C@H](OC(C)(C)C)C(=O)O)c(-c2ccc(Cl)cc2)c2ccccc2c1Br` [Compound 150B, (S)-2-(4-bromo-1-(4-chlorophenyl)-3-methylnaphthalen-2-yl)-2-tert-butoxyacetic acid] here?
**A.** 0.26 µM

**Q.** How did the EC50 turn out when `Cc1cc2ccccc2c(-c2ccc3c4c2N(C)CCC4CCO3)c1[C@H](OC(C)(C)C)C(=O)O` (stereo partly drawn) [Compound 22, (2S)-2-tert-Butoxy-2-(3-methyl-1-((7R)-6-methyl-2,3,3a,4,5,6-hexahydropyrano[4,3,2-de]quinolin-7-yl)naphthalen-2-yl)acetic acid] was run?
**A.** 0.54 µM

**Q.** With `Cc1cc2ccc(C#CC3(N)CCCCC3)cc2c(-c2ccc(Cl)cc2)c1C(OC(C)(C)C)C(=O)O` (centres unmarked) [Compound 84, 2-(7-((1-Aminocyclohexyl)ethynyl)-1-(4-chlorophenyl)-3-methylnaphthalen-2-yl)-2-tert-butoxyacetic acid] as the compound, how does the EC50 read?
**A.** 0.014 µM

Same assay, conditions: MT-4 cells infected with HIV-IIIb (0.004 m.o.i.), 5 days of incubation, CellTiter-Glo chemiluminescence readout; read-out: EC50

**Q.** `Cc1cc2cc(C)c([C@H](OC(C)(C)C)C(=O)O)c(-c3ccc4c5c(ccnc35)CCO4)c2cc1F` (atropisomer, axis not shown) [Compound 156] was tested. Which EC50 did it give?
**A.** 7.3 µM

**Q.** `Cc1ccc2c(-c3ccc4c5c(ccnc35)CCO4)c([C@H](OC(C)(C)C)C(=O)O)c(C)cc2c1` [Compound 68B, (S)-2-tert-Butoxy-2-((R)-1-(2,3-dihydropyrano[4,3,2-de]quinolin-7-yl)-3,6-dimethylnaphthalen-2-yl)acetic acid] was tested. Which EC50 did it give?
**A.** 0.005 µM

**Q.** How did the EC50 turn out when `Cc1cc2ccc(F)cc2c(-c2ccc3c4c(ccnc24)CCO3)c1[C@H](OC(C)(C)C)C(=O)O` (racemic) [Compound 123, (±)-(2S)-2-tert-Butoxy-2-((R)-1-(2,3-dihydropyrano[4,3,2-de]quinolin-7-yl)-7-fluoro-3-methylnaphthalen-2-yl)acetic acid] was run?
**A.** 0.024 µM

**Q.** Which EC50 does the source give for `Cc1cc2c(F)c(C)ccc2c(-c2ccc3c4c(ccnc24)CCO3)c1[C@H](OC(C)(C)C)C(=O)O` [Compound 119, (S)-2-tert-Butoxy-2-((R)-1-(2,3-dihydropyrano[4,3,2-de]quinolin-7-yl)-5-fluoro-3,6-dimethylnaphthalen-2-yl)acetic acid] here?
**A.** 0.011 µM

**Q.** `Cc1cc2c(Cl)cccc2c(-c2ccc3c4c(ccnc24)CCO3)c1C(OC(C)(C)C)C(=O)O` [Compound 47, 2-tert-Butoxy-2-((R)-5-chloro-1-(2,3-dihydropyrano[4,3,2-de]quinolin-7-yl)-3-methylnaphthalen-2-yl)acetic acid] was tested. Which EC50 did it give?
**A.** 0.11 µM
